This passage reports IC50 results from patent US20240166635A1, “AMINOHETEROARYL KINASE INHIBITORS” (Anrui Biomedical Technology (Guangzhou) Co.,Ltd., priority 2020, published 2024).

Holding throughout (type): biochemical
One assay concerns the target CDK1/CyclinB (Homo sapiens (Human), UniProt P06493). As to the kind of experiment: CDK1/CyclinB kinase inhibitory activity (Caliper mobility shift). As to conditions: read-out: CDK1/Cyclin B1 IC50.
The next assay addresses CDK7/CyclinH/MAT1 (Homo sapiens (Human), UniProt P50613). Description: CDK7/CyclinH/MAT1 kinase inhibitory activity (Caliper mobility shift).
The next assay deals with CDK2/CyclinE1 (Homo sapiens (Human), UniProt P24941). Description: CDK2/CyclinE1 kinase inhibitory activity (Caliper mobility shift). The following applies: read-out: CDK2/Cyclin El IC50.
For the next assay, the target named is CDK9/CyclinT1 (Homo sapiens (Human), UniProt P50750). Description: CDK9/CyclinT1 kinase inhibitory activity (Caliper mobility shift). The following applies: read-out: CDK9/Cyclin T1 IC50.
The target of a further assay is CDK6/CyclinD1 (Homo sapiens (Human), UniProt Q00534). As to the kind of experiment: CDK6/CyclinD1 kinase inhibitory activity (Caliper mobility shift). The following applies: read-out: CDK6/Cyclin D1 IC50.

pIC50: −log10 of the molar value.

CDK1/CyclinB, sequence (P06493 whole entry): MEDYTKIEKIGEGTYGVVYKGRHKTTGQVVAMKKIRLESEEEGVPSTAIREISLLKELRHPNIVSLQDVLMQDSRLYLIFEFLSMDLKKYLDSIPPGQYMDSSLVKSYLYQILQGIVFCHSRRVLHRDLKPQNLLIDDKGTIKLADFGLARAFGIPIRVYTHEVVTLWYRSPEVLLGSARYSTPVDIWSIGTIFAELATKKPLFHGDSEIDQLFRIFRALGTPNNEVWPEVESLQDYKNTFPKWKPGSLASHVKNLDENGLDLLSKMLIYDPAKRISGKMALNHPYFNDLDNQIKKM
CDK1/CyclinB, sequence (P14635 whole entry partner): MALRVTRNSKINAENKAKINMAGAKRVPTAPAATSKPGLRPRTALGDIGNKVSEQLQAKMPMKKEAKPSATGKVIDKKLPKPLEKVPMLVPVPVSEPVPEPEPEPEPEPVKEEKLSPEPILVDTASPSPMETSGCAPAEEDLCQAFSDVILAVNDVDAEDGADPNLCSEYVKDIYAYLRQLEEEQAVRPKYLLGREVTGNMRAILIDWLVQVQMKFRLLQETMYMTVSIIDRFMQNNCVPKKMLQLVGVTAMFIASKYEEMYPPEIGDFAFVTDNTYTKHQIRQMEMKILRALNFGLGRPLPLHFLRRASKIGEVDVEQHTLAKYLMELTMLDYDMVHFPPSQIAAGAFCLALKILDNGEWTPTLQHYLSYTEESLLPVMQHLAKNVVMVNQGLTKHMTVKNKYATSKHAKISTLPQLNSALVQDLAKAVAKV
CDK9/CyclinT1, sequence (P50750 whole entry): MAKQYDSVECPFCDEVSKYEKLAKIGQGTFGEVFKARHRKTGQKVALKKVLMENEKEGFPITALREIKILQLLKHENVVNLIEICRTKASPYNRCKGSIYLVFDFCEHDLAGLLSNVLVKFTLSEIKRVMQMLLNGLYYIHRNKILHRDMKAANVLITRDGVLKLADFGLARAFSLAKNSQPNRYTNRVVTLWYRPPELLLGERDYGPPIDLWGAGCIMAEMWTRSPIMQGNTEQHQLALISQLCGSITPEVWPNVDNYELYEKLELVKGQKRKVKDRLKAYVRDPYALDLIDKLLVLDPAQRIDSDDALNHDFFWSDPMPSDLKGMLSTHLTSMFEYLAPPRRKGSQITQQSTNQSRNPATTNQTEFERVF
CDK9/CyclinT1, sequence (O60563 whole entry partner): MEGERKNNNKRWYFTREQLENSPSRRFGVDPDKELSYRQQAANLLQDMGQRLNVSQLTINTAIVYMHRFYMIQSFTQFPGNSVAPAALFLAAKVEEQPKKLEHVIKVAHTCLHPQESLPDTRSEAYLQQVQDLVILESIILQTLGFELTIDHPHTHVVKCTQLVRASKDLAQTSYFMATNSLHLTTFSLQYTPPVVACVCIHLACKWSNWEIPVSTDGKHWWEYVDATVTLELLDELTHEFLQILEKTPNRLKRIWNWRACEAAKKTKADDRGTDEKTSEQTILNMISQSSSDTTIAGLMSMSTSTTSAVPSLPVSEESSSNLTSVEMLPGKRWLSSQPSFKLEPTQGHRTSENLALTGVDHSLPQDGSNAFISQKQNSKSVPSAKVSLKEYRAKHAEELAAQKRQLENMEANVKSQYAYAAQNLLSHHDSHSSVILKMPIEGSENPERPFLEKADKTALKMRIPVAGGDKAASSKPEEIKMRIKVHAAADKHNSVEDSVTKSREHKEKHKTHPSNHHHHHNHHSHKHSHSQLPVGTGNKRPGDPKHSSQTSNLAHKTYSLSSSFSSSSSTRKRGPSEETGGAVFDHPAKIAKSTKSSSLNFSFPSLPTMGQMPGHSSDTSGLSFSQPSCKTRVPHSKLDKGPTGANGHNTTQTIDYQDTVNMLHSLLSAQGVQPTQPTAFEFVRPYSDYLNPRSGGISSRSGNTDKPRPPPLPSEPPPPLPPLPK
CDK6/CyclinD1, sequence (Q00534 whole entry): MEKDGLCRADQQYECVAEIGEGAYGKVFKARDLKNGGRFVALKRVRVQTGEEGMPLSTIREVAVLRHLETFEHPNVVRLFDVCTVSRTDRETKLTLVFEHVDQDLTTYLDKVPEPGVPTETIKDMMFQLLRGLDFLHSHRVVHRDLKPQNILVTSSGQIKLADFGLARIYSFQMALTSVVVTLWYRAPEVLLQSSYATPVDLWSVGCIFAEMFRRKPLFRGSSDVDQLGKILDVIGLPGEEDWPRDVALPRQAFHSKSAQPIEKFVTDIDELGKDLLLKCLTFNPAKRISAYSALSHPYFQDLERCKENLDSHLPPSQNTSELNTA
CDK6/CyclinD1, sequence (P24385 whole entry partner): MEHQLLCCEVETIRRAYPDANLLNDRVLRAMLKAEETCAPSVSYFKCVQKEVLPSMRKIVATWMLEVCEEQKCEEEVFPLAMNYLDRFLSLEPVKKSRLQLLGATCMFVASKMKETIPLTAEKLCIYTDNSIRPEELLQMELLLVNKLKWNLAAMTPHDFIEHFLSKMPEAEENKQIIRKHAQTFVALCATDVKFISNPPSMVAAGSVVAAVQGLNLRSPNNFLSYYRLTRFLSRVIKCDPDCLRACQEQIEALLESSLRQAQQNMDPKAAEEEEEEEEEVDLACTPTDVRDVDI
CDK7/CyclinH/MAT1, sequence (P50613 whole entry): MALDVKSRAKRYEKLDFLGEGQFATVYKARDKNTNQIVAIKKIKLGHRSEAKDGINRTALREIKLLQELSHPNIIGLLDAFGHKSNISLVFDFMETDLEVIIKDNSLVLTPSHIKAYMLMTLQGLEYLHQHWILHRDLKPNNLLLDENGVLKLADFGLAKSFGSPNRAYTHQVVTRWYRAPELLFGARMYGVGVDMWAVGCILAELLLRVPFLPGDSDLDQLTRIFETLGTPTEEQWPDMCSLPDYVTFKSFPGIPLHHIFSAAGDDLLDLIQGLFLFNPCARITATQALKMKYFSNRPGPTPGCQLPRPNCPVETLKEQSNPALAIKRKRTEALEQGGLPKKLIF
CDK7/CyclinH/MAT1, sequence (P51946 whole entry partner): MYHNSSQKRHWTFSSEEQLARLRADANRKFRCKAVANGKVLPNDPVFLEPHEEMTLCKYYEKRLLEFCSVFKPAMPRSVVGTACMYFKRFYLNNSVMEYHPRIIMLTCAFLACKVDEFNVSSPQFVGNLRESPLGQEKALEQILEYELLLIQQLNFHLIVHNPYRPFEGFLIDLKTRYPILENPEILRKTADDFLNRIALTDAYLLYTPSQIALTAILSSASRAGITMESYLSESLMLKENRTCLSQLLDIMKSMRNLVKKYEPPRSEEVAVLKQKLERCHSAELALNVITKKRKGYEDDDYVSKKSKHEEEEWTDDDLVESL
CDK7/CyclinH/MAT1, sequence (P51948 whole entry partner): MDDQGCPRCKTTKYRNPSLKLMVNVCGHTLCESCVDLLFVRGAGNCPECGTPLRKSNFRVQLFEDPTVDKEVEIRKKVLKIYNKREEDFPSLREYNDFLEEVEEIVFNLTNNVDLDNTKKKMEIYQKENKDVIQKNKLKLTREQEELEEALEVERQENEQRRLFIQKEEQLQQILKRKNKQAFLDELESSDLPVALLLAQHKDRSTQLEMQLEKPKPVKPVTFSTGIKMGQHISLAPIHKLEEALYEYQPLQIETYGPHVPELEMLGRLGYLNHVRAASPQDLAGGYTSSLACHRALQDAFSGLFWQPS

Consider `N#Cc1cnc(Nc2ccc(S(N)(=O)=O)cc2)nc1N1CCCC1` [Example 67], for which the pIC50 on CDK1/CyclinB is 6.00 to 7.00; on CDK7/CyclinH/MAT1, not above 6.00; at CDK2/CyclinE1 it was 7.00 to 8.00; at CDK9/CyclinT1 it was 6.00 to 7.00.

Regarding `C[C@H]1CCCCN1c1nc(Nc2ccc(S(N)(=O)=O)cc2)ncc1C#N` [Example 74], the pIC50 on CDK1/CyclinB was 7.00 to 8.00; at CDK7/CyclinH/MAT1, not above 6.00; on CDK6/CyclinD1 it was 6.00 to 7.00; at CDK2/CyclinE1 it was more than 8.00; at CDK9/CyclinT1, 6.00 to 7.00.

As for `N#Cc1cnc(Nc2ccc(S(N)(=O)=O)cc2)nc1N1CCC[C@H](O)C1` [Example 69], the pIC50 is 7.00 to 8.00 on CDK1/CyclinB, 6.00 to 7.00 on CDK7/CyclinH/MAT1, more than 8.00 at CDK2/CyclinE1 and 6.00 to 7.00 at CDK9/CyclinT1.

In the case of `CC1(COc2nc(Nc3ccc(S(N)(=O)=O)cc3)ncc2C#N)CCCCC1` [Example 14], the pIC50 at CDK1/CyclinB is 6.00 to 7.00; on CDK7/CyclinH/MAT1, not above 6.00; at CDK6/CyclinD1, not above 6.00; at CDK2/CyclinE1, 7.00 to 8.00; on CDK9/CyclinT1, 6.00 to 7.00.

For the compound `[2H]C([2H])([2H])NS(=O)(=O)c1ccc(Nc2ncc(C(F)(F)F)c(OC3CCOCCC3O)n2)cc1` (single isomer, unassigned) [Example 102b, 4-((4-((5-hydroxyoxepan-4-yl)oxy)-5-(trifluoromethyl)pyrimidin-2-yl)amino)-N-(methyl-d3)benzenesulfonamide], the pIC50 on CDK1/CyclinB was 7.00 to 8.00; on CDK7/CyclinH/MAT1, 6.00 to 7.00; at CDK6/CyclinD1, 6.00 to 7.00.

For `N#Cc1cnc(Nc2ccc(S(N)(=O)=O)cc2)nc1N1CCC[C@@H](O)C1` [Example 70], the pIC50 is 6.00 to 7.00 at CDK1/CyclinB, not above 6.00 at CDK7/CyclinH/MAT1, 7.00 to 8.00 on CDK2/CyclinE1 and 6.00 to 7.00 on CDK9/CyclinT1.

As for `N#Cc1cnc(Nc2ccc(S(N)(=O)=O)cc2)nc1OCC1(CO)CCCC1` [Example 15], the pIC50 on CDK1/CyclinB is 7.00 to 8.00; on CDK7/CyclinH/MAT1, 6.00 to 7.00; at CDK6/CyclinD1, 6.00 to 7.00; at CDK2/CyclinE1, more than 8.00; on CDK9/CyclinT1, 6.00 to 7.00.

As to `CNS(=O)(=O)c1ccc(Nc2ncc(C(F)(F)F)c(O[C@H]3CCCOC[C@H]3O)n2)cc1` (single isomer, unassigned) [Example 103b, cis-4-((4-((3-hydroxyoxepan-4-yl)oxy)-5-(trifluoromethyl)pyrimidin-2-yl)amino)-N-(methyl-d3)benzenesulfonamide], the results for the pIC50 at CDK6/CyclinD1 and at CDK2/CyclinE1 were 6.00 to 7.00 and more than 8.00, respectively.

Consider `NS(=O)(=O)N1CCC(Nc2ncc(C(F)(F)F)c(OC3CCCCCC3O)n2)CC1` (single isomer, unassigned) [Example 122b], for which the pIC50 at CDK1/CyclinB was 7.00 to 8.00; on CDK7/CyclinH/MAT1 it was 7.00 to 8.00; on CDK2/CyclinE1, more than 8.00; at CDK9/CyclinT1 it was 7.00 to 8.00.

Consider `C[C@@H]1CCCN(c2nc(Nc3ccc(S(N)(=O)=O)cc3)ncc2C#N)C1` [Example 72], for which the pIC50 was 6.00 to 7.00 at CDK1/CyclinB; not above 6.00 on CDK7/CyclinH/MAT1; 6.00 to 7.00 on CDK6/CyclinD1; 7.00 to 8.00 at CDK2/CyclinE1; 6.00 to 7.00 at CDK9/CyclinT1.

In the case of `CC1(C)CCCN(c2nc(Nc3ccc(S(N)(=O)=O)cc3)ncc2C#N)C1` [Example 83], the pIC50 is 7.00 to 8.00 on CDK1/CyclinB; not above 6.00 on CDK7/CyclinH/MAT1; 6.00 to 7.00 on CDK6/CyclinD1; more than 8.00 on CDK2/CyclinE1; 7.00 to 8.00 on CDK9/CyclinT1.

Take `NS(=O)(=O)c1ccc(Nc2ncc(C(F)(F)F)c(OC3CCCCCC3O)n2)cc1` (single isomer, unassigned) [Example 118a]: the pIC50 at CDK1/CyclinB is more than 8.00; at CDK7/CyclinH/MAT1, 6.00 to 7.00; on CDK2/CyclinE1, more than 8.00; on CDK9/CyclinT1, more than 8.00.

For the compound `CS(=O)(=O)N1CCC(Nc2ncc(C(F)(F)F)c(OC3CCCCCC3O)n2)CC1` (single isomer, unassigned) [Example 121a], the pIC50 on CDK1/CyclinB was 7.00 to 8.00; on CDK7/CyclinH/MAT1, 7.00 to 8.00; at CDK2/CyclinE1 it was more than 8.00; on CDK9/CyclinT1, 6.00 to 7.00.

For `N#Cc1cnc(Nc2ccc(S(N)(=O)=O)cc2)nc1-c1ccccc1` [Example 93], the pIC50 was 6.00 to 7.00 at CDK1/CyclinB; not above 6.00 on CDK7/CyclinH/MAT1; not above 6.00 at CDK6/CyclinD1; 7.00 to 8.00 on CDK2/CyclinE1; 6.00 to 7.00 at CDK9/CyclinT1.

As for `[2H]C([2H])([2H])NS(=O)(=O)c1ccc(Nc2ncc(C(F)(F)F)c(OC3CCOCCC3O)n2)cc1` (single isomer, unassigned) [Example 102d, 4-((4-((5-hydroxyoxepan-4-yl)oxy)-5-(trifluoromethyl)pyrimidin-2-yl)amino)-N-(methyl-d3)benzenesulfonamide], the pIC50 was 6.00 to 7.00 at CDK1/CyclinB, not above 6.00 at CDK7/CyclinH/MAT1 and 6.00 to 7.00 on CDK6/CyclinD1.

Regarding `N#Cc1cnc(Nc2ccc(S(N)(=O)=O)cc2)nc1OCC1CCCC1` [Example 1, 4-((5-cyano-4-(cyclopentylmethoxy)pyrimidin-2-yl)amino)benzenesulfonamide], the pIC50 is 7.00 to 8.00 on CDK1/CyclinB; not above 6.00 at CDK7/CyclinH/MAT1; not above 6.00 at CDK6/CyclinD1; 7.00 to 8.00 at CDK2/CyclinE1; 7.00 to 8.00 at CDK9/CyclinT1.

As for `N#Cc1cnc(Nc2ccc(S(=O)(=O)NC3COC3)cc2)nc1N1CCCCC1` [Example 66, 4-((5-cyano-4-(piperidin-1-yl)pyrimidin-2-yl)amino)-N-(oxetan-3-yl)benzenesulfonamide], the pIC50 at CDK1/CyclinB was 7.00 to 8.00; on CDK7/CyclinH/MAT1, not above 6.00; on CDK6/CyclinD1, 6.00 to 7.00; on CDK2/CyclinE1, more than 8.00; on CDK9/CyclinT1, 6.00 to 7.00.

For the compound `N#Cc1cnc(Nc2ccc(S(N)(=O)=O)cc2)nc1OCC1(CO)CCCCC1` [Example 17], the pIC50 on CDK1/CyclinB is 7.00 to 8.00; at CDK7/CyclinH/MAT1 it was not above 6.00; at CDK6/CyclinD1 it was 6.00 to 7.00; at CDK2/CyclinE1 it was more than 8.00; on CDK9/CyclinT1 it was 6.00 to 7.00.

For `CS(=O)(=O)N1CCC(Nc2ncc(C#N)c(N3CCCCC3)n2)CC1` [Example 89], the pIC50 on CDK1/CyclinB is 6.00 to 7.00; on CDK7/CyclinH/MAT1, not above 6.00; on CDK2/CyclinE1 it was 7.00 to 8.00; at CDK9/CyclinT1, not above 6.00.

As for `C[C@@H]1CCCCN1c1nc(Nc2ccc(S(N)(=O)=O)cc2)ncc1C#N` [Example 73], the pIC50 is 7.00 to 8.00 on CDK1/CyclinB; 6.00 to 7.00 on CDK7/CyclinH/MAT1; 6.00 to 7.00 on CDK6/CyclinD1; more than 8.00 on CDK2/CyclinE1; 6.00 to 7.00 on CDK9/CyclinT1.

As to `N#Cc1cnc(Nc2ccc(S(N)(=O)=O)cc2)nc1N1CCCC(c2ccccc2)C1` (single isomer, unassigned) [Example 85], the pIC50 is 7.00 to 8.00 at CDK1/CyclinB; 6.00 to 7.00 at CDK7/CyclinH/MAT1; 6.00 to 7.00 at CDK6/CyclinD1; more than 8.00 at CDK2/CyclinE1; 6.00 to 7.00 at CDK9/CyclinT1.

On to `NS(=O)(=O)c1ccc(Nc2ncc(C(F)(F)F)c(OC3COCCC3O)n2)cc1` (single isomer, unassigned) [Example 115a], for which the values for the pIC50 at CDK1/CyclinB, on CDK7/CyclinH/MAT1 and at CDK2/CyclinE1 were 7.00 to 8.00, 7.00 to 8.00 and more than 8.00, respectively.

As to `N#Cc1cnc(Nc2ccc(S(N)(=O)=O)cc2)nc1N1CCC[C@H](CO)C1` [Example 78], the pIC50 at CDK1/CyclinB was 7.00 to 8.00; at CDK2/CyclinE1, more than 8.00; at CDK9/CyclinT1 it was 6.00 to 7.00.

For the compound `[2H]C([2H])([2H])NS(=O)(=O)c1ccc(Nc2ncc(Br)c(OC3CCCC3O)n2)cc1` (single isomer, unassigned) [Example 143b], the pIC50 at CDK1/CyclinB is 6.00 to 7.00; on CDK2/CyclinE1 it was more than 8.00; at CDK9/CyclinT1, 6.00 to 7.00.

On to `CC(C)CS(=O)(=O)N1CCC(Nc2ncc(C#N)c(OC3CCCC3(C)O)n2)CC1` (single isomer, unassigned) [Example 39b], for which the pIC50 on CDK1/CyclinB was 6.00 to 7.00; at CDK2/CyclinE1 it was 7.00 to 8.00; on CDK9/CyclinT1, not above 6.00.

As to `CC(C)NS(=O)(=O)c1ccc(Nc2ncc(C#N)c(OC3CCCCC3O)n2)cc1` (single isomer, unassigned) [Example 30b], the results for the pIC50 at CDK1/CyclinB, at CDK2/CyclinE1 and on CDK9/CyclinT1 were 6.00 to 7.00, 7.00 to 8.00 and not above 6.00, respectively.

Take `[2H]C([2H])([2H])NS(=O)(=O)c1ccc(Nc2ncc(C(F)(F)F)c(OC3COCCC3O)n2)cc1` (single isomer, unassigned) [Example 117b]: the results for the pIC50 on CDK1/CyclinB, at CDK2/CyclinE1 and at CDK9/CyclinT1 were 6.00 to 7.00, 7.00 to 8.00 and not above 6.00, respectively.

`Cc1cnc(Nc2ccc(S(=O)(=O)NC(C)C)cc2)nc1OC1CCCC1O` (single isomer, unassigned) [Example 147b]: the pIC50 on CDK1/CyclinB was 6.00 to 7.00; at CDK2/CyclinE1 it was 7.00 to 8.00; on CDK9/CyclinT1 it was 6.00 to 7.00.

For `CNS(=O)(=O)c1ccc(Nc2ncc(Cl)c(OC3CCCC3O)n2)cc1` (single isomer, unassigned) [Example 137b], the pIC50 on CDK1/CyclinB was 7.00 to 8.00; on CDK2/CyclinE1 it was more than 8.00; on CDK9/CyclinT1, 6.00 to 7.00.

As for `CC(C)NS(=O)(=O)c1ccc(Nc2ncc(C3CC3)c(O[C@@H]3CCC[C@@H]3O)n2)cc1` (single isomer, unassigned) [Example 134b, cis-4-((5-cyclopropyl-4-((2-hydroxycyclopentyl)oxy)pyrimidin-2-yl)amino)-N-isopropylbenzenesulfonamide], the pIC50 is 6.00 to 7.00 on CDK1/CyclinB, 7.00 to 8.00 at CDK2/CyclinE1 and 6.00 to 7.00 at CDK9/CyclinT1.

Take `[2H]C([2H])([2H])NS(=O)(=O)c1ccc(Nc2ncc(C(F)(F)F)c(OC3CCOCCC3O)n2)cc1` (single isomer, unassigned) [Example 102c, 4-((4-((5-hydroxyoxepan-4-yl)oxy)-5-(trifluoromethyl)pyrimidin-2-yl)amino)-N-(methyl-d3)benzenesulfonamide]: the pIC50 at CDK1/CyclinB was 6.00 to 7.00; on CDK7/CyclinH/MAT1 it was not above 6.00; on CDK6/CyclinD1, 6.00 to 7.00.

Consider `NS(=O)(=O)N1CCC(Nc2ncc(C(F)(F)F)c(OC3CCCCCC3O)n2)CC1` (single isomer, unassigned) [Example 122a], for which the pIC50 was 6.00 to 7.00 on CDK1/CyclinB, more than 8.00 at CDK2/CyclinE1 and 6.00 to 7.00 on CDK9/CyclinT1.
